# According to PMC12566936, “DST-3, a Novel Modified Cryptotanshinone, Protects Against Pulmonary Fibrosis via Inhibiting STAT3/Smad Signaling Pathway and Improves Bioavailability” (Pharmaceutics, 2025):
# Read-outs that look alike come from different tables or passages of the source.
# Experiments:
# [1] = Pharmacokinetic study, single iv or oral administration in SD rats; format: in vivo; conditions: for concentration at 0.25 h / concentration at 0.5 h / concentration at 1 h / concentration at 2 h / concentration at 3 h / concentration at 4 h / concentration at 6 h / concentration at 8 h / concentration at 12 h / concentration at 24 h: n = 4; for MRT last: read-out: MRT0–t
# Protocol: A total of 16 male SD rats, according to weight, were randomly divided into four groups (n = 4), a~d, as described in pharmacodynamics study: • (A) DST-3 intravenous injection of 6 mg/kg; • (B) DST-3 oral gavage of 60 mg/kg; • (C) CTS intravenous injection of 6 mg/kg; • (D) CTS oral gavage of 60 mg/kg.
# Blood collection was performed in all rats at 0.25 h, 0.5 h, 1 h, 2 h, 3 h, 4 h, 6 h, 8 h, 12 h, and 24 h after administration.
# The blank plasma for method validation was rapidly extracted from the main abdominal vein of SD rats. The sample for the pharmacokinetic study was obtained by taking 250 μL of blood from the orbit of SD rats. The blood was placed in a heparinized collection vessel, centrifuged at 3000 rpm for 10 min, and the upper plasma layer was taken.
# A 100 μL sample was precisely measured, and 10 μL of loratadine working solution and 500 μL of ethyl acetate were added for liquid–liquid-extraction. The mixture was shaken for 1 min, centrifuged for 4 min at 12,000× g, and 400 μL of the upper organic phase was vacuum dried for 2 h. Then 100 μL of mobile phase (methanol-1% formic acid water (90:10, v/v)) was added, dissolved, vortexed for 1 min, and centrifuged at low temperature for 3 min at 12,000× g. The supernatant (80 μL) was placed in a sample bottle for HPLC-MS/MS analysis.
# According to the non-compartmental model, the pharmacokinetic software DAS 2.0 was used to calculate the main pharmacokinetic parameters: maximum plasma concentration (Cmax), elimination half-life (t1/2), time to reach maximum plasma concentration (Tmax), mean residence time (MRT0–t), area under the plasma concentration curve from 0 to the last measured concentration (AUC0−t), AUC from 0 to infinity (AUC0–∞), apparent clearance rate (CL/F) and apparent distribution volume (V/F).
# MRC5 cells = experiment: CCK8 cell viability assay; format: cell-based; conditions: 20 μM, 48 h
# Protocol: (§1) Medical Research Council cell strain-5 (MRC5, ATCC, Manassas, VA, USA, Cat# CCL-171) was supplemented with 10% fetal bovine serum (GIBCO, Invitrogen, Carlsbad, CA, USA) in low-sugar DMEM medium (GIBCO, Invitrogen, Carlsbad, CA, USA) in an incubator containing 5% CO2 atmosphere at 37 °C.
# The cells were seeded in 96-well plates for 24 h and treated with DST-3 (1.25, 2.5, 5, 10, 20 μM) at different concentrations for 48 h. The CCK8 kit (Beyotime, Shanghai, China) was used to test the cytotoxic effect of DST-3 on MRC5 cells. Medium solution of 10% CCK8 was added to each well and incubated at 37 °C for 2 h. Absorbance was measured at 450 nm (BioTek, Elx800, Winooski, VT, USA).
# [2] = tested on: TGF-β1-stimulated MRC5 cells; experiment: TGF-β1-induced fibrosis in MRC5 (α-SMA, fibronectin, type I collagen; immunofluorescence and Western blot); format: cell-based; conditions: TGF-β1 5 ng/mL, 48 h
# Protocol: as §1
# MRC5 cells were fixed in 4% paraformaldehyde for 0.5 h, then permeated with 1% Triton X-100 (Sangon Biotech, Shanghai, China) for 10 min, and blocked with goat serum (BOSTER, Wuhan, China) for 1 h. The cells were then incubated with α-SMA or STAT3 (1:100 diluted) primary antibody overnight at 4 °C and secondary antibody at room temperature for 1 h. The nuclei were stained at room temperature with Hoechst 33,342 (1:100 diluted) for 10 min. Fluorescence images were captured using a laser scanning ultra-high resolution microscope (FV3000, Olympus Corporation, Tokyo, Japan).
# MRC5 cells or lung tissues were washed with cold PBS and then lysed on ice using RIPA buffer (Beyotime Biotechnology, Shanghai, China) supplemented with protease and phosphatase inhibitors (Bimake, Boston, USA) for 0.5 h and centrifuged at 4 °C at 12,000× g for 15 min. […] (BCA protein Assay Kit, Pierce, Waltham, MA, USA) was used to determine protein concentration. […] Band strength was quantified by ImageJ software (version 1.53t, Bio-Rad, Rockford, IL, USA).
# [3] = tested on: BLM-induced pulmonary fibrosis in C57BL/6 mice; experiment: BLM-induced pulmonary fibrosis model; format: in vivo; conditions: BLM 2 mg/kg; DST-3 15–60 mg/kg, CTS 30 mg/kg oral
# From the text: Sixty male Sprague-Dawley (SD) rats were individually weighed one day prior to administration and randomly assigned to six groups (n = 10 per group) using a stratified randomization method to ensure balanced average body weights across groups (weight range: 220–260 g; inter-group mean weight difference < 5 g). The vehicle used for […] administration of both CTS and DST-3 was 0.5% sodium carboxymethyl cellulose (CMC-Na) solution. A–F: • (A) Normal saline + CMC–Na; • (B) BLM + 0.5% CMC–Na; • (C) BLM + DST-3 15 mg/kg; • (D) BLM + DST-3 30 mg/kg; • (E) BLM + DST-3 60 mg/kg; • (F) BLM + CTS 30 mg/kg.
# Pulmonary fibrosis was induced in groups B–F by tracheal infusion of bleomycin 2 mg/kg, and in group A by normal saline. To create a suspension for oral administration, all DST-3 or CTS were dissolved in 0.5% CMC-Na. […]
# HYP was specifically detected in collagen as a posttranslational product of proline hydroxylation. […] In this study, the content of HYP in lung tissue was determined by alkaline hydrolyzation. […] Each sample was measured at 550 nm to detect the absorbance, and the HYP content was calculated according to the following formula: Hydroxproline content (μg/mg) =Measured OD value -Blank OD value/Standard OD value -Blank OD value× Stand content ×Lysate total volume (mL)/Organization wet weight (mg) […]
# [4] = cited from earlier work
# [5] = male, rat, plasma, iv 6 mg/kg, n = 4, mean ± SD
# [6] = male, rat, plasma, oral 60 mg/kg
# [7] = male, rat, plasma, po, ig 60 mg/kg, n = 4, mean ± SD
compound,measurement,setting,value
"C[C@H]1COC2=C1C(=O)C(=O)c1c2ccc2c1CCCC2(C)C [CTS, Cryptotanshinone]",V/F,"[1]; ig 60 mg/kg, n = 4, mean ± SD",1391 ± 382.0 L
same,V/F,"[1]; iv 6 mg/kg, n = 4, mean ± SD",87.70 ± 59.30 L
same,concentration at 0.25 h,"[1]; male, rat, plasma, iv 6 mg/kg",341 ng/mL
same,concentration at 0.5 h,"[1]; male, rat, plasma, iv 6 mg/kg",167 ng/mL
same,concentration at 1 h,"[1]; male, rat, plasma, iv 6 mg/kg",91.7 ng/mL
same,concentration at 2 h,"[1]; male, rat, plasma, iv 6 mg/kg",73.9 ng/mL
same,concentration at 3 h,"[1]; male, rat, plasma, iv 6 mg/kg",62.8 ng/mL
same,concentration at 4 h,"[1]; male, rat, plasma, iv 6 mg/kg",45.7 ng/mL
same,concentration at 6 h,"[1]; male, rat, plasma, iv 6 mg/kg",29.9 ng/mL
same,concentration at 8 h,"[1]; male, rat, plasma, iv 6 mg/kg",19 ng/mL
same,concentration at 12 h,"[1]; male, rat, plasma, iv 6 mg/kg",10.2 ng/mL
same,concentration at 24 h,"[1]; male, rat, plasma, iv 6 mg/kg",4.8 ng/mL
same,AUC(0-inf),[1]; [5],671 ± 168 ng·h/mL
same,AUC(0-t),[1]; [5],631 ± 157 ng·h/mL
same,Cmax,[1]; [5],341 ± 14.9 ng/mL
same,half-life,[1]; [5],6.8 ± 3.7 h
same,MRT last,[1]; [5],5.1 ± 0.3 h
same,concentration at 0.25 h,[1]; [6],11.7 ng/mL
same,concentration at 0.5 h,[1]; [6],13.6 ng/mL
same,concentration at 1 h,[1]; [6],18.9 ng/mL
same,concentration at 2 h,[1]; [6],16.3 ng/mL
same,concentration at 3 h,[1]; [6],23 ng/mL
same,concentration at 4 h,[1]; [6],34.8 ng/mL
same,concentration at 6 h,[1]; [6],29.4 ng/mL
same,concentration at 8 h,[1]; [6],31 ng/mL
same,concentration at 12 h,[1]; [6],17.5 ng/mL
same,concentration at 24 h,[1]; [6],8.9 ng/mL
same,bioavailability,"[1]; male, rat, plasma, oral, ig 60 mg/kg vs iv 6 mg/kg, AUCig/AUCiv × 100%, read-out: absolute bioavailability",8.56%
same,AUC(0-inf),[1]; [7],574 ± 51 ng·h/mL
same,AUC(0-t),[1]; [7],458 ± 22.8 ng·h/mL
same,Cmax,[1]; [7],39.5 ± 6.8 ng/mL
same,Tmax,[1]; [7],4.5 ± 1 h
same,half-life,[1]; [7],9.3 ± 3 h
same,MRT last,[1]; [7],15.7 ± 2.8 h
same,cell viability (cytotoxicity),MRC5 cells,significantly decreased
same,expression of α-SMA and ECM proteins,[2],downregulate the overexpression
same,histopathology (HE and Masson staining): inflammatory infiltration and fibrosis severity,[3],reduced inflammatory infiltration and fibrosis severity
same,oral bioavailability,[4]; CTS is a substrate of P-glycoprotein,2.05%
same,oral bioavailability,[4]; typically,below 10%
